Measurements from patent US6706663B2, “Herbicidal 3-heterocyclic substituted benzisothiazole and benzisoxazole compounds” (Wyeth, priority 2000, dated 2004).

Experiments:
CYPIR (Cyperus iria) = test: Flooded paddy, preemergence weed control; format: in vivo; settings: rated 3-4 weeks after treatment, 0-9 rating scale
In short: (§1)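 In this preemergence paddy assay, weed seeds or organs are sown at up to 0.5 cm in silt loam and covered by 1.5–3 cm of water for the full test period. After treatment the pots are kept in a greenhouse, and herbicidal effect is rated 0-9 visually against a control.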

[1] = test system: SAGPY (Sagittaria pygmaea); test: Flooded paddy, preemergence weed control; format: in vivo, L.; settings: rated 3-4 weeks after treatment, 0-9 rating scale
In short: as §1

[2] = test system: CHEAL (Chenopodium album); test: Postemergence herbicidal evaluation; format: in vivo, L.; settings: postemergence
In short: (§2)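 Seedlings grown for about two weeks were sprayed postemergence and then kept under standard greenhouse care. Injury was rated visually 4–5 weeks after treatment on a 0–9 scale against untreated controls, and ratings from repeat tests were averaged.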

[3] = test system: AMBEL (Ambrosia artemisifolia); test: Postemergence herbicidal evaluation; format: in vivo, L.; settings: postemergence
In short: as §2

[4] = test system: CASOB (Cassia obtusifolia); test: Postemergence herbicidal evaluation; format: in vivo, L.; settings: postemergence
In short: as §2

[5] = test system: MOOVA (Monochoria vaginalis); test: Flooded paddy, preemergence weed control; format: in vivo, Presl.; settings: rated 3-4 weeks after treatment, 0-9 rating scale
In short: as §1

GALAP (Galium aparine) [6] = test: Preemergence herbicidal evaluation; format: in vivo; settings: rated 4-5 weeks after treatment
In short: (§3)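 Each species was sown separately in potting soil over roughly one inch of soil, and the surface sprayed with compound dissolved in aqueous acetone. Assessment used a 0–9 visual scale against a control after four to five weeks.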

ORYSAT (Rice, Tebonnet) [7] = test: Preemergence herbicidal evaluation; format: in vivo, Oryza sativa, (L.) Tebonnet; settings: rated 4-5 weeks after treatment
GALAP (Galium aparine) [8] = test: Postemergence herbicidal evaluation; format: in vivo; settings: postemergence
In short: as §2

[9] = test system: CHEAL (Chenopodium album); test: Preemergence herbicidal evaluation; format: in vivo, L.; settings: rated 4-5 weeks after treatment
In short: as §3

[10] = test system: AMBEL (Ambrosia artemisifolia); test: Preemergence herbicidal evaluation; format: in vivo, L.; settings: rated 4-5 weeks after treatment
In short: as §3

[11] = test system: CASOB (Cassia obtusifolia); test: Preemergence herbicidal evaluation; format: in vivo, L.; settings: rated 4-5 weeks after treatment
In short: as §3

[12] = test system: ABUTH (Abutilon theophrasti); test: Postemergence herbicidal evaluation; format: in vivo, Medic.; settings: postemergence
In short: as §2

ORYSAT (Rice, Tebonnet) [13] = test: Postemergence herbicidal evaluation; format: in vivo, Oryza sativa, (L.) Tebonnet; settings: postemergence
In short: as §2

[14] = test system: TRZAWR (Wheat, Winter, cv Riband); test: Postemergence herbicidal evaluation; format: in vivo, Triticum aestivum; settings: postemergence
In short: as §2

[15] = test system: ECHCG (Echinochloa crus-galli); test: Preemergence herbicidal evaluation; format: in vivo, (L.) Beau; settings: rated 4-5 weeks after treatment
In short: as §3

SETVI (Setaria viridis) [16] = test: Preemergence herbicidal evaluation; format: in vivo, (L.) Beau; settings: rated 4-5 weeks after treatment
In short: as §3

[17] = test system: IPOHE (Ipomoea hederacea); test: Postemergence herbicidal evaluation; format: in vivo, (L.) Jacq.; settings: postemergence
In short: as §2

SETVI (Setaria viridis) [18] = test: Postemergence herbicidal evaluation; format: in vivo, (L.) Beau; settings: postemergence
In short: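 Visual injury score (0-9: stand, vigor, malformation, size, chlorosis, overall appearance vs untreated control) taken four to five weeks post-spray. Two-week-old seedlings received about 0.0040 to 1.000 kg/ha active compound in acetone/water with 0.5% TWEEN 20.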

`Cn1c(C(F)(F)F)cc(=O)n(-c2ccc3snc(C4OCC(c5ccccc5)O4)c3c2)c1=O` (stereo not drawn) [Compound 78, 1-methyl-3-[3-(4-phenyl-1,3-dioxolan-2-yl)-1,2-benzisothiazol-5-yl]-6-(trifluoromethyl)uracil] was tested, and the “herbicidal rating, CYPIR” value (CYPIR (Cyperus iria); rate 0.0080 kg/ha) was 0.0, the “herbicidal rating, CYPIR” value (CYPIR (Cyperus iria); rate 0.0320 kg/ha) was 9.0 and the “herbicidal rating, CYPIR” value (CYPIR (Cyperus iria); rate 0.1250 kg/ha) was 9.0. The “herbicidal rating, SAGPY” value ([1]; rate 0.0080 kg/ha) was 0.0, the “herbicidal rating, SAGPY” value ([1]; rate 0.0320 kg/ha) was 1.0 and the “herbicidal rating, SAGPY” value ([1]; rate 0.1250 kg/ha) was 9.0. For the same compound, the CHEAL herbicidal rating ([2]; rate 0.0320 kg/ha) was 9.0, the CHEAL herbicidal rating ([2]; rate 0.0620 kg/ha) was 9.0 and the AMBEL herbicidal rating ([3]; rate 0.0320 kg/ha) was 9.0. The AMBEL herbicidal rating ([3]; rate 0.0620 kg/ha) was 9.0, the CASOB herbicidal rating ([4]; rate 0.0320 kg/ha) was 9.0 and the CASOB herbicidal rating ([4]; rate 0.0620 kg/ha) was 6.0. For the same compound, the “herbicidal rating, MOOVA” value ([5]; rate 0.0080 kg/ha) was 7.7, the “herbicidal rating, MOOVA” value ([5]; rate 0.0320 kg/ha) was 9.0 and the “herbicidal rating, MOOVA” value ([5]; rate 0.1250 kg/ha) was 9.0. For the same compound, the “Preemergence herbicidal rating GALAP” value (GALAP (Galium aparine) [6]; Rate 0.0620 kg/ha) was 7.0, the “Preemergence herbicidal rating GALAP” value (GALAP (Galium aparine) [6]; Rate 0.1250 kg/ha) was 7.0 and the “Preemergence herbicidal rating GALAP” value (GALAP (Galium aparine) [6]; Rate 0.2500 kg/ha) was 7.0. The “Preemergence herbicidal rating ORYSAT” value (ORYSAT (Rice, Tebonnet) [7]; Rate 0.0620 kg/ha) was 2.0, the “Preemergence herbicidal rating ORYSAT” value (ORYSAT (Rice, Tebonnet) [7]; Rate 0.1250 kg/ha) was 2.5 and the “Preemergence herbicidal rating ORYSAT” value (ORYSAT (Rice, Tebonnet) [7]; Rate 0.2500 kg/ha) was 3.0. The GALAP herbicidal rating (GALAP (Galium aparine) [8]; rate 0.0320 kg/ha) was 4.0, the GALAP herbicidal rating (GALAP (Galium aparine) [8]; rate 0.0620 kg/ha) was 7.0 and the “Preemergence herbicidal rating CHEAL” value ([9]; Rate 0.0620 kg/ha) was 9.0. For the same compound, the “Preemergence herbicidal rating CHEAL” value ([9]; Rate 0.1250 kg/ha) was 9.0, the “Preemergence herbicidal rating CHEAL” value ([9]; Rate 0.2500 kg/ha) was 9.0 and the “Preemergence herbicidal rating AMBEL” value ([10]; Rate 0.0620 kg/ha) was 9.0. The “Preemergence herbicidal rating AMBEL” value ([10]; Rate 0.1250 kg/ha) was 9.0, the “Preemergence herbicidal rating AMBEL” value ([10]; Rate 0.2500 kg/ha) was 9.0 and the “Preemergence herbicidal rating CASOB” value ([11]; Rate 0.0620 kg/ha) was 2.0. The “Preemergence herbicidal rating CASOB” value ([11]; Rate 0.1250 kg/ha) was 4.0, the “Preemergence herbicidal rating CASOB” value ([11]; Rate 0.2500 kg/ha) was 6.0 and the ABUTH herbicidal rating ([12]; rate 0.0320 kg/ha) was 9.0. For the same compound, the ABUTH herbicidal rating ([12]; rate 0.0620 kg/ha) was 9.0, the ORYSAT herbicidal rating (ORYSAT (Rice, Tebonnet) [13]; rate 0.0320 kg/ha) was 4.0 and the ORYSAT herbicidal rating (ORYSAT (Rice, Tebonnet) [13]; rate 0.0620 kg/ha) was 4.0. For the same compound, the TRZAWR herbicidal rating ([14]; rate 0.0320 kg/ha) was 3.5, the TRZAWR herbicidal rating ([14]; rate 0.0620 kg/ha) was 5.0 and the “Preemergence herbicidal rating ECHCG” value ([15]; Rate 0.0620 kg/ha) was 8.5. For the same compound, the “Preemergence herbicidal rating ECHCG” value ([15]; Rate 0.1250 kg/ha) was 9.0, the “Preemergence herbicidal rating ECHCG” value ([15]; Rate 0.2500 kg/ha) was 8.0 and the “Preemergence herbicidal rating SETVI” value (SETVI (Setaria viridis) [16]; Rate 0.0620 kg/ha) was 9.0. For the same compound, the “Preemergence herbicidal rating SETVI” value (SETVI (Setaria viridis) [16]; Rate 0.1250 kg/ha) was 9.0, the “Preemergence herbicidal rating SETVI” value (SETVI (Setaria viridis) [16]; Rate 0.2500 kg/ha) was 9.0 and the IPOHE herbicidal rating ([17]; rate 0.0320 kg/ha) was 9.0. For the same compound, the IPOHE herbicidal rating ([17]; rate 0.0620 kg/ha) was 9.0, the SETVI herbicidal rating (SETVI (Setaria viridis) [18]; rate 0.0320 kg/ha) was 7.0 and the SETVI herbicidal rating (SETVI (Setaria viridis) [18]; rate 0.0620 kg/ha) was 9.0.

In the case of `Cn1c(C(F)(F)F)cc(=O)n(-c2ccc3snc(-c4sccc4CBr)c3c2)c1=O` [Compound 80, 3-[3-[3-(bromomethyl)-2-thienyl]-1,2-benzisothiazol-5-yl]-1-methyl-6-(trifluoromethyl)uracil], the “herbicidal rating, CYPIR” value (CYPIR (Cyperus iria); rate 0.0080 kg/ha) is reported as 0.0, the “herbicidal rating, CYPIR” value (CYPIR (Cyperus iria); rate 0.0320 kg/ha) is reported as 4.5 and the “herbicidal rating, CYPIR” value (CYPIR (Cyperus iria); rate 0.1250 kg/ha) is reported as 9.0. The “herbicidal rating, SAGPY” value ([1]; rate 0.0080 kg/ha) was 0.0, the “herbicidal rating, SAGPY” value ([1]; rate 0.0320 kg/ha) was 4.5 and the “herbicidal rating, SAGPY” value ([1]; rate 0.1250 kg/ha) was 7.0. It also gave a CHEAL herbicidal rating ([2]; rate 0.0320 kg/ha) of 9.0, a CHEAL herbicidal rating ([2]; rate 0.0620 kg/ha) of 9.0 and an AMBEL herbicidal rating ([3]; rate 0.0320 kg/ha) of 7.0. For the same compound, the AMBEL herbicidal rating ([3]; rate 0.0620 kg/ha) was 9.0, the CASOB herbicidal rating ([4]; rate 0.0320 kg/ha) was 5.0 and the CASOB herbicidal rating ([4]; rate 0.0620 kg/ha) was 5.0. For the same compound, the “herbicidal rating, MOOVA” value ([5]; rate 0.0080 kg/ha) was 0.0, the “herbicidal rating, MOOVA” value ([5]; rate 0.0320 kg/ha) was 9.0 and the “herbicidal rating, MOOVA” value ([5]; rate 0.1250 kg/ha) was 9.0. The “Preemergence herbicidal rating GALAP” value (GALAP (Galium aparine) [6]; Rate 0.0620 kg/ha) was 4.0, the “Preemergence herbicidal rating GALAP” value (GALAP (Galium aparine) [6]; Rate 0.1250 kg/ha) was 5.0 and the “Preemergence herbicidal rating GALAP” value (GALAP (Galium aparine) [6]; Rate 0.2500 kg/ha) was 7.0. The “Preemergence herbicidal rating ORYSAT” value (ORYSAT (Rice, Tebonnet) [7]; Rate 0.0620 kg/ha) was 0.5, the “Preemergence herbicidal rating ORYSAT” value (ORYSAT (Rice, Tebonnet) [7]; Rate 0.1250 kg/ha) was 2.5 and the “Preemergence herbicidal rating ORYSAT” value (ORYSAT (Rice, Tebonnet) [7]; Rate 0.2500 kg/ha) was 6.0. For the same compound, the GALAP herbicidal rating (GALAP (Galium aparine) [8]; rate 0.0320 kg/ha) was 3.0, the GALAP herbicidal rating (GALAP (Galium aparine) [8]; rate 0.0620 kg/ha) was 4.0 and the “Preemergence herbicidal rating CHEAL” value ([9]; Rate 0.0620 kg/ha) was 5.5. The “Preemergence herbicidal rating CHEAL” value ([9]; Rate 0.1250 kg/ha) was 7.5, the “Preemergence herbicidal rating CHEAL” value ([9]; Rate 0.2500 kg/ha) was 9.0 and the “Preemergence herbicidal rating AMBEL” value ([10]; Rate 0.0620 kg/ha) was 5.0. The “Preemergence herbicidal rating AMBEL” value ([10]; Rate 0.1250 kg/ha) was 9.0, the “Preemergence herbicidal rating AMBEL” value ([10]; Rate 0.2500 kg/ha) was 9.0 and the “Preemergence herbicidal rating CASOB” value ([11]; Rate 0.0620 kg/ha) was 0.0. The “Preemergence herbicidal rating CASOB” value ([11]; Rate 0.1250 kg/ha) was 0.0, the “Preemergence herbicidal rating CASOB” value ([11]; Rate 0.2500 kg/ha) was 1.5 and the ABUTH herbicidal rating ([12]; rate 0.0320 kg/ha) was 6.0. For the same compound, the ABUTH herbicidal rating ([12]; rate 0.0620 kg/ha) was 9.0, the ORYSAT herbicidal rating (ORYSAT (Rice, Tebonnet) [13]; rate 0.0320 kg/ha) was 3.5 and the ORYSAT herbicidal rating (ORYSAT (Rice, Tebonnet) [13]; rate 0.0620 kg/ha) was 3.5. For the same compound, the TRZAWR herbicidal rating ([14]; rate 0.0320 kg/ha) was 3.0, the TRZAWR herbicidal rating ([14]; rate 0.0620 kg/ha) was 3.5 and the “Preemergence herbicidal rating ECHCG” value ([15]; Rate 0.0620 kg/ha) was 0.5. For the same compound, the “Preemergence herbicidal rating ECHCG” value ([15]; Rate 0.1250 kg/ha) was 2.0, the “Preemergence herbicidal rating ECHCG” value ([15]; Rate 0.2500 kg/ha) was 6.5 and the “Preemergence herbicidal rating SETVI” value (SETVI (Setaria viridis) [16]; Rate 0.0620 kg/ha) was 1.5. The “Preemergence herbicidal rating SETVI” value (SETVI (Setaria viridis) [16]; Rate 0.1250 kg/ha) was 4.5, the “Preemergence herbicidal rating SETVI” value (SETVI (Setaria viridis) [16]; Rate 0.2500 kg/ha) was 7.5 and the IPOHE herbicidal rating ([17]; rate 0.0320 kg/ha) was 9.0. For the same compound, the IPOHE herbicidal rating ([17]; rate 0.0620 kg/ha) was 9.0, the SETVI herbicidal rating (SETVI (Setaria viridis) [18]; rate 0.0320 kg/ha) was 2.0 and the SETVI herbicidal rating (SETVI (Setaria viridis) [18]; rate 0.0620 kg/ha) was 3.0.
